Assay results from patent publication US20220193181A1 (priority 2020, published 2022).

Tests used:
[1] = system: SARS-CoV-1; conditions: Vero E6 cells; cited from earlier work
[2] = molecular target: T1, clotting factor X111 (Homo sapiens, UniProt P00488); conditions: cited from earlier work
T1 sequence (P00488 1-732): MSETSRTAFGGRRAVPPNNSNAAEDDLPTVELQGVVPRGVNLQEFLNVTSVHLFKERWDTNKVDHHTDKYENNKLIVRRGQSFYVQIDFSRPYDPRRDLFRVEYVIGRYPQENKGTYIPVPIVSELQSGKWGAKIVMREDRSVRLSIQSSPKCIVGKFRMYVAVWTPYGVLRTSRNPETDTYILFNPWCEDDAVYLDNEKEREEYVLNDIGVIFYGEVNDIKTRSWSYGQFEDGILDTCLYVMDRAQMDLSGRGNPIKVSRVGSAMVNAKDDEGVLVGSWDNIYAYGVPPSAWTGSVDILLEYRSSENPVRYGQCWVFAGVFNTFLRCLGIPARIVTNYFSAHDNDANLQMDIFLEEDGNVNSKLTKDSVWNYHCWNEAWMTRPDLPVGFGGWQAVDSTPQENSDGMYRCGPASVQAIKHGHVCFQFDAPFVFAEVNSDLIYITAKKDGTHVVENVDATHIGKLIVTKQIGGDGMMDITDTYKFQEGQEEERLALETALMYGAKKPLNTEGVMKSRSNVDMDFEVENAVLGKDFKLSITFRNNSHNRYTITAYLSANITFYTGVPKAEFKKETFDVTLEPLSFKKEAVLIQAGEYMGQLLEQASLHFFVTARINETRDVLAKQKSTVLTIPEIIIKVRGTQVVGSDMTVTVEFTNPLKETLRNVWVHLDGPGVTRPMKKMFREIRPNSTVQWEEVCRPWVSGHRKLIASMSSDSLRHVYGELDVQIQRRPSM

[3] = system: platelet aggregation; conditions: cited from earlier work
[4] = system: vascular inflammation; conditions: previously reported by the inventors; cited from earlier work
[5] = system: Spike S1 treated mice
[6] = molecular target: GSNO reductase (Homo sapiens, UniProt P11766); conditions: cited from earlier work
Sequence of GSNO reductase (P11766 whole entry): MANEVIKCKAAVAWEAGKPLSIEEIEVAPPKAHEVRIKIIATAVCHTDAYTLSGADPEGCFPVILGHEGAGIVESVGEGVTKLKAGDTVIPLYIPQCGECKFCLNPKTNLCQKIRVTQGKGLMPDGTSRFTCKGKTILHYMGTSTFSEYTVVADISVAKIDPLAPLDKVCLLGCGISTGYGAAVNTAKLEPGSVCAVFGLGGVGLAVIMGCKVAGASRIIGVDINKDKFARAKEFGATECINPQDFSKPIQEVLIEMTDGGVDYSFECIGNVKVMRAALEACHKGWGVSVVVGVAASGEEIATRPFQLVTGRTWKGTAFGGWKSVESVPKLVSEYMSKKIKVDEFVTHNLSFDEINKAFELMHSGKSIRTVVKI

[7] = system: EAE mice; assay: Adoptive transfer of B cells from N6022-treated mice to EAE mice
[8] = system: SARS-CoV-2 patients; conditions: cited from earlier work
[9] = B cells from N6022-treated EAE mice
[10] = B cells from N6022-treated non-EAE mice

## CC(=O)N[C@@H](C(=O)O)C(C)(C)SN=O (racemic) [SNAP, reference compound]
[1]
  viral protein and vRNA synthesis and replication of SARS-CoV-1: inhibit
[2]
  clot formation: inhibited
  clotting factor X111 (transglutaminase) activity: inhibited

## N[C@@H](CCC(=O)N[C@@H](CSN=O)C(=O)NCC(=O)O)C(=O)O [GSNO, S-nitrosoglutathione]
[3]
  platelet aggregation: inhibit
[2]
  clot formation: inhibited
  clotting factor X111 (transglutaminase) activity: inhibited
[4]
  vascular inflammation: inhibit
  vascular integrity: protect
[5]; greater effects on Th17 cells
  Spike S1 induced T cell responses (Th1 and Th17 cells) in spleen: down regulated
[5]; mouse, in vivo
  IL-6 positive B cells in spleen: decreased
  IL-10 positive B cells in spleen: increased
  Treg cells in spleen: practically no effect

## Cc1cc(C(N)=O)ccc1-n1c(CCC(=O)O)ccc1-c1ccc(-n2ccnc2)cc1 [N6022]
[6]
  GSNO reductase inhibition: potent and reversible
[4]
  vascular inflammation: inhibit
  vascular integrity: protect
[7]; [9]
  TH17 cells in the CNS of recipients: decreased
  blood IL-6 levels of recipients: decreased
  blood IL-10 levels of recipients: increased
  number of Treg cells in the CNS of recipients: increased
[7]; [10]
  blood cytokine levels and CNS Treg and TH17 cells of recipients: no significant alterations
  disease of recipient EAE mice: no disease attenuation

## TCZ: IL6 receptor antibody that blocks IL-6 signaling
[8]; in vivo
  patients in whom the optical lung lesion on CT scan resolved: 90.5%
  patients whose lymphocyte counts returned to normal: 53%
  patients with improved oxygenation: 75%
[8]; within a few days
  reducing fever: effective
